According to US4242330A, “Derivative of aspirin” (The University of Kentucky Research Foundation, priority 1979, dated 1980):

Tests used:
[1] = rate of generation of aspirin via hydrolysis, determined spectrophotometrically at 285 nm; assay type: physicochemical; details: for half-life: buffer, read-out: half-life of hydrolysis to aspirin (t1/2); for half-life / half-life of hydrolysis to aspirin (t1/2): average of three determinations
Experimental: Therefore, the decrease in absorbance of a solution containing both the prodrug of this invention and aspirin observed at 285 nanometers upon adjustment of the pH to a value of six is proportional to the amount of aspirin in the solution.
Accordingly, the rate of generation of aspirin via hydrolysis of the derivative of the present invention was determined spectrophotometrically at 285 nm. Solutions of 1-O-(2'-acetoxy)benzoyl-α-D-2-deoxyglucopyranose in a buffered solution containing 5 mg/ml were freshly prepared and maintained at constant temperature in a circulating waterbath. […] Buffers employed were hydrochloric acid (pH 1 to 2), citrate (pH 3), acetate (pH 4 to 6) and phosphate (pH 7-9). Ionic strength was adjusted with potassium chloride (usually to 0.1). The change in absorbance at 285 nm was followed until no change in absorbance was observed. First order plots were constructed by plotting log (At -A.infin.) agains time. The effect of pH on the rate of hydrolysis was determined using solutions ranging from pH 1.2 to pH 9.
*Each halflife is the average of three determinations.

[2] = cited from earlier work
[3] = rate of hydrolysis by following the rate of appearance of aspirin in solution by high pressure liquid chromatography; assay type: physicochemical; details: HPLC; pH and temperature not given
Experimental: The rate of hydrolysis of 1-O-(2'-acetoxy)benzoyl-α-D-glucopyranose, i.e., the compound of the formula [drawing 4] was determined by following the rate of appearance of aspirin in a solution by high pressure liquid chromatography.

| Structure (SMILES) | half-life ([1]; pH 3, pH 3, 37° C) | half-life ([1]; pH 4.6, pH 4.6, 37° C) | half-life ([1]; pH 8, pH 8, 37° C) | half-life ([1]; pH 9, pH 9, 37° C) | half-life of hydrolysis to aspirin (t1/2) ([1]; pH 6.4, 37° C) | half-life of hydrolysis to aspirin (t1/2) ([1]; pH 8, 37° C) | effect of pH on the generation of aspirin from the derivative ([1]; solutions ranging from pH 1.2 to pH 9) | hydrolysis product ([2]; reaction scheme (II)) | rate of hydrolysis to aspirin ([2]; to the extent that hydrolysis to aspirin takes place) | half-life [3] |
| --- | --- | --- | --- | --- | --- | --- | --- | --- | --- | --- |
| CC(=O)Oc1ccccc1C(=O)O[C@@H]1C[C@@H](O)[C@H](O)[C@@H](CO)O1 [1-O-(2'-acetoxy)benzoyl-α-D-2-deoxyglucopyranose] | 7 min | 7.1 min | 7 min | 7 min | 7.0 min | 7.02 min | independent of the pH of the solutions | – | – | – |
| CC(=O)Oc1ccccc1C(=O)O[C@H]1O[C@H](CO)[C@@H](O)[C@H](O)[C@H]1O [1-O-(2'-acetoxy)benzoyl-α-D-glucopyranose] | – | – | – | – | – | – | – | tends to hydrolyze so as to form the corresponding sugar derivative of salicylic acid | very slow rate | 55 h |
